Key:
[1] = tested on: TTA45; assay: CD melting, DNA stabilization; type: binding, human; conditions: 5 µM DNA, 20 µM compound, 10 mM Tris-HCl, 50 mM KCl, pH 7.4
Source text: Compounds Structures IC /µM m

[2] = tested on: TBA; assay: CD melting, DNA stabilization; type: binding; conditions: 5 µM DNA, 20 µM BMPQ-1, 10 mM Tris-HCl, 50 mM KCl, pH 7.4
Procedure: CD studies were performed on a Chirascan circular dichroism spectrophotometer (Jasco, Easton, MD, USA). A quartz cuvette with a 1 mm path length was used to record the spectra over a wavelength range of 220–320 nm with a 1 nm bandwidth. All the samples were prepared in buffer containing 10 mM Tris–HCl pH 7.4, 100 mM KCl. To ensure the concentrations of G-quadruplex units to be 20 μM, multiple G-quadruplexes forming oligonucleotides with different concentrations were used (TTA (G1) 20 μM, TTA45 (G2) 10 μM, TTA69 (G3) 6.67 μM, TTA93 (G4) 5 μM, TTA117 (G5) 4 μM, TTA141 (G6) 3.33 μM). The DNA samples were heated at 95°C for 5 min and cooled down slowly to room temperature. 20, 40 and 60 μM BMPQ-1 were mixed with DNAs separately. Melting curves were measured at 295 nm and the range of temperature was 4–95°C.

[3] = tested on: human normal liver cells (HL-7702); assay: Cell cytotoxicity assay (CCK8); type: cell-based; conditions: L02, CCK8, 48 h treatment
Procedure: The cell growth effect of BMPQ-1 against different cell lines were tested via measuring the quantity of living cells using the Cell Counting Kit-8 (CCK8) (DOJINDO, Japan) according to the instruction. Cells were seeded in a 96-well plate (5 × 10^3 cells/well) and grown for 24 h for attachment. Then the cells were treated with various concentrations of BMPQ-1 and incubated at 37°C with 5% CO2 for 48 h. After incubation, the old medium was discarded followed by adding fresh medium containing 10% FBS in DMEM. Then 100 μl CCK-8 (10% in grow medium) was added into each well, and the cells were further incubated for 1 h. The optical density (OD) was detected at 450 nm by an automated microplate reader (Bio-Rad). The IC50 values were derived from the curves of the mean percentage of survival against the drug concentration. All the experiments were performed in triplicate.
A Cell Counting Kit-8 (CCK8) (DOJINDO, Japan) was employed to evaluate the cytotoxicity of BMPQ-1 on human alveolar basal epithelial cancer cell line (A549), human hepatocellular carcinoma cancer cell line (HepG2), human gastric cancer cell line (MGC-803), human colon adenocarcinoma (HT29), human normal liver Cells (HL-7702).

[4] = tested on: dimeric G-quadruplexes (TTA45); assay: Fluorescence response of BMPQ-1 to DNA; type: binding, human; conditions: 3 μM BMPQ-1, 2 μM TTA45, λex = 395 nm
Procedure: Figure 1. (A) Structure of BMPQ-1. (B) Fluorescence spectra of BMPQ-1 at λex = 395 nm in the absence or presence of dimeric G-quadruplexes (TTA45), monomeric G-quadruplexes (c-KIT1, c-KIT2, c-MYCPu22, TTA, VEGF, TBA), trinucleotide DNA (CGG12), duplex DNA (19AT) and single-stranded DNA (dT30). The concentration of BMPQ-1 was 3 μM. The concentration of TTA45 was 2 μM and DNAs with other structures were 4 μM. (C) Fluorescence spectra of 6 μM BMPQ-1 at λex = 395 nm in the absence or presence of 2 μM telomeric G-quadruplexes. Oligonucleotide samples were prepared in solution with 10 mM K2HPO4/KH2PO4, pH 7.0, 100 mM KCl. (D) Effect of BMPQ-1 on the CD spectra of 10 μM TTA45 in 10 mM Tris-HCl buffer (pH 7.4) containing 100 mM KCl.
G-quadruplex forming oligonucleotides were annealed in the buffer (10 mM K2HPO4/KH2PO4 pH 7.0, 100 mM KCl) by heating to 95°C for 5 min, followed by gradual cooling to room temperature. Fluorescence spectra were detected by RF-5301PC spectrofluorophotometer (Shimadzu, Japan) at room temperature. The spectra were recorded with 5 nm excitation and emission slit widths. […] For the fluorescence measurements between BMPQ-1 and different DNA sequences, the final concentrations of multimeric G-quadruplex forming oligonucleotides were 2 μM and other DNA oligonucleotides were 4 μM.

[5] = tested on: TTA43 (DNA, G4) GGGTTAGGGTTAGGGTTAGGGTGGGTTAGGGTTAGGGTTAGGG; assay: fluorescence titration; conditions: 100 mM K+ (KCl) plus potassium phosphate; 10 mM K2HPO4/KH2PO4 pH 7.0; 3 µM compound, DNA 0-10 µM; weaker than TTA45
[6] = tested on: TTA57/T5 (DNA, G4) GGGTTAGGGTTAGGGTTAGGGTTATTATTATTATTAGGGTTAGGGTTAGGGTTAGGG; assay: fluorescence titration; conditions: 100 mM K+ (KCl) plus potassium phosphate; 10 mM K2HPO4/KH2PO4 pH 7.0; 3 µM compound, DNA 0-10 µM; weaker than TTA45
[7] = tested on: VEGF (DNA, G4) GGGAGGGTTGGGGTGGG; assay: ligand fluorescence enhancement; conditions: 100 mM K+ (KCl) plus potassium phosphate; 10 mM K2HPO4/KH2PO4 pH 7.0; 3 µM compound, 4 µM DNA; enhancement below 3-fold

In the case of `Cc1ccc(Cn2cc3c(-c4ccc5c(c4)OCO5)nnc-3c3cc4c(cc32)OCO4)cc1` [BMPQ-1], the “ΔTm (°C) TTA45” value [1] is reported as 14.6 °C, the “ΔTm (°C) TBA” value [2] is reported as 4.7 °C and the IC50 [3] is reported as 4.38 ± 0.39 µM. For the same compound, the “fluorescence increase at 521 nm” value [4] was 10 fold, the binding [5] was “yes” and the binding [6] was “yes”. The binding [7] was “weak”.

From paper PMC7672424 (Nucleic Acids Research, 2020)
